Here are results for one molecule from article PMC10924921, “Mi-2β promotes immune evasion in melanoma by activating EZH2 methylation” (Nature Communications, 2024).

Structures are written as SMILES.

What all share (assay): biochemical
What all share (parameters): KINOMEscan active-site competition binding panel (468 kinase assays), per cent of control at 1000 nM
Common to all, as to conditions: KINOMEscan per cent of control (binding competition); read-out: Percent Control

One assay deals with AKT2 (Homo sapiens, UniProt P31751). An excerpt:
(§1) Figure S7 / Percent Control

A further assay deals with AURKA (Homo sapiens, UniProt O14965).
AURKA, sequence (O14965 whole entry): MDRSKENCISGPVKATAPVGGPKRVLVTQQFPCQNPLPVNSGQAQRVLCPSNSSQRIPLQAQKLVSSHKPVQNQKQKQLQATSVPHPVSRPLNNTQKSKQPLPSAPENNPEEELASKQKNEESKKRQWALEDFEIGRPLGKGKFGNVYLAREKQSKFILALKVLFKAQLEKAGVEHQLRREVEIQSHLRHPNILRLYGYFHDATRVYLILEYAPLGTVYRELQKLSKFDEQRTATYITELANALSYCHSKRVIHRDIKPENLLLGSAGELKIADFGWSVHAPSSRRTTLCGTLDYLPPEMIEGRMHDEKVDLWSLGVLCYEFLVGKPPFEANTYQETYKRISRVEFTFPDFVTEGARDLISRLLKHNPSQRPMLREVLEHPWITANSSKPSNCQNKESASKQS
From the text: as §1

The target in another assay is AURKB (Homo sapiens, UniProt Q96GD4).
From the text: as §1

The target in another assay is CAMK2G (Homo sapiens, UniProt Q13555).
From the text: as §1

The target of another assay is T1, CDK4-cyclinD1 (Homo sapiens, UniProt P11802).
T1 construct: cyclinD1
T1 sequence (P11802 whole entry): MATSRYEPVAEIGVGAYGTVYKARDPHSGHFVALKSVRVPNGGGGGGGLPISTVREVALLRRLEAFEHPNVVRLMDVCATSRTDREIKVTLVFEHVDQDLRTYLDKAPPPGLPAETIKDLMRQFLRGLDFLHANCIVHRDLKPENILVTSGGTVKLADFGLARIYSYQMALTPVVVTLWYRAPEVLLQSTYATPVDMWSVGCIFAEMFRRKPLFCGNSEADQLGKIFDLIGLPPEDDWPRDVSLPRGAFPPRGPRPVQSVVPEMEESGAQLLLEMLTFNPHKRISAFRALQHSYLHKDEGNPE
T1 sequence (P24385 whole entry partner): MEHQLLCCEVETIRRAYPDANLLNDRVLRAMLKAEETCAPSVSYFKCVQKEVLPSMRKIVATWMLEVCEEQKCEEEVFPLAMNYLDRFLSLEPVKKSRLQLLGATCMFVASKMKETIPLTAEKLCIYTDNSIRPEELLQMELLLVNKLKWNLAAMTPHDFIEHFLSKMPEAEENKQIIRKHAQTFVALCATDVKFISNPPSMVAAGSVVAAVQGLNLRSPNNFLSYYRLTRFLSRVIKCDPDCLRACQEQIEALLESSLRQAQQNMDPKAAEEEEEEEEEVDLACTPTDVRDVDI
From the text: as §1

For a further assay, the target named is T2, CDK4-cyclinD3 (Homo sapiens, UniProt P11802).
T2 construct: cyclinD3
T2 sequence (P11802 whole entry): as the sequence (P11802 whole entry) above
T2 sequence (P30281 whole entry partner): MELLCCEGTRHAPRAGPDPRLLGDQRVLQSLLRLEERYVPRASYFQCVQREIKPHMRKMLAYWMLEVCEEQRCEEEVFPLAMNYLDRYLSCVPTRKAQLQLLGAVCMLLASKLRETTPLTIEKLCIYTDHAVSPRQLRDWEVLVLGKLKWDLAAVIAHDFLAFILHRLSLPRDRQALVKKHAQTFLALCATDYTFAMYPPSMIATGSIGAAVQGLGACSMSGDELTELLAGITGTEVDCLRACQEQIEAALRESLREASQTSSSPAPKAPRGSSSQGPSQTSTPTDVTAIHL
From the text: as §1

The next assay concerns the target CDK5 (Homo sapiens, UniProt Q00535).
From the text: as §1

The next assay concerns the target T3, DMPK2 (Homo sapiens, UniProt Q6DT37).
T3 construct: gene CDC42BPG
From the text: as §1

The target of a further assay is T4, DRAK2 (Homo sapiens, UniProt O94768).
T4 construct: gene STK17B
From the text: as §1

In a further assay the target is T5, GCN2(Kin.Dom.2,S808G) (Homo sapiens, UniProt Q9P2K8, S808G).
T5 construct: gene EIF2AK4; Kin.Dom.2
From the text: as §1

A further assay concerns the target KIT(A829P) (Homo sapiens, UniProt P10721, A829P).
From the text: as §1

The target in the next assay is KIT(L576P) (Homo sapiens, UniProt P10721, L576P).
KIT(L576P), sequence (P10721 whole entry L576P): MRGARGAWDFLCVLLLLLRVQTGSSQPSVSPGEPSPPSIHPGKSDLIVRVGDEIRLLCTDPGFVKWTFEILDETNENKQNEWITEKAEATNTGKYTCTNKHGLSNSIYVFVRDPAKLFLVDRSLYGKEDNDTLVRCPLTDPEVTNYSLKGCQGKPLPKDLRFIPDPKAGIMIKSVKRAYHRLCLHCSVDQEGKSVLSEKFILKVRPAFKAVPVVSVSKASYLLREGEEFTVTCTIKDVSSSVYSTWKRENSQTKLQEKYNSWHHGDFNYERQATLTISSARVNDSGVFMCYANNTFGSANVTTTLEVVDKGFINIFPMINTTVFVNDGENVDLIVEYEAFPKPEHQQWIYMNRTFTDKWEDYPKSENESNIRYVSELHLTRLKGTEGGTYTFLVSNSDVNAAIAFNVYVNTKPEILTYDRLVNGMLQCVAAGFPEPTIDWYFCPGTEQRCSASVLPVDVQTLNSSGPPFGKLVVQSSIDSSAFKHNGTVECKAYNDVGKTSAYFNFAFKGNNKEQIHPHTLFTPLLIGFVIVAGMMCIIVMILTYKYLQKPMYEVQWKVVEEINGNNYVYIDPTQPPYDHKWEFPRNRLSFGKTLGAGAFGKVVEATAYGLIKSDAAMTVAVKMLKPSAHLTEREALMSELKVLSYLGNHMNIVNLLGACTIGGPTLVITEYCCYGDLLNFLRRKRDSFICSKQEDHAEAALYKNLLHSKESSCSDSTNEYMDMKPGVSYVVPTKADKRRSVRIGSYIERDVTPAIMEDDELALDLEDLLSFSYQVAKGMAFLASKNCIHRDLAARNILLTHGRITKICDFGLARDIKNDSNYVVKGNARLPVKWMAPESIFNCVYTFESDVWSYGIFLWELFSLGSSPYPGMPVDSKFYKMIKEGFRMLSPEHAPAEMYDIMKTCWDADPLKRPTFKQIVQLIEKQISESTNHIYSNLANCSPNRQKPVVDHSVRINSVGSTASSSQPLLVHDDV
From the text: as §1

The next assay has as its target KIT-autoinhibited (Homo sapiens, UniProt P10721).
From the text: as §1

A further assay has as its target MST1R (Homo sapiens, UniProt Q04912).
From the text: as §1

The target in the next assay is MYLK4 (Homo sapiens, UniProt Q86YV6).
MYLK4, sequence (Q86YV6 whole entry): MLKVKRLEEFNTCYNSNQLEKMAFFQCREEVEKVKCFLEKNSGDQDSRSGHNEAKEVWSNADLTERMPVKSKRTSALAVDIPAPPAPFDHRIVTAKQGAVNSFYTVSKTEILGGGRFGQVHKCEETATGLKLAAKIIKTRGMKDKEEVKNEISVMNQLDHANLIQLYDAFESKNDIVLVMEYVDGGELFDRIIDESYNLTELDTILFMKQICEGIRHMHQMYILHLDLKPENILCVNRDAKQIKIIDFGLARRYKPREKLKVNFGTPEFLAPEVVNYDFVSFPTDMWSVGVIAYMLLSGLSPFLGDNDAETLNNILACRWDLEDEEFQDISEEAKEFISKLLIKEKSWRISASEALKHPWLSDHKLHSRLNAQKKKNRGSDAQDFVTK
From the text: as §1

The next assay deals with T6, PCTK1 (Homo sapiens, UniProt Q00536).
T6 construct: gene CDK16
From the text: as §1

The target of a further assay is PRKCI (Homo sapiens, UniProt P41743).
From the text: as §1

The next assay has as its target RET(V804L) (Homo sapiens, UniProt P07949, V804L).
From the text: as §1

For the next assay, the target named is SGK3 (Homo sapiens, UniProt Q96BR1).
From the text: as §1

The target in a further assay is TBK1 (Homo sapiens, UniProt Q9UHD2).
From the text: as §1

For the next assay, the target named is T7, TIE2 (Homo sapiens, UniProt Q02763).
T7 construct: gene TEK
From the text: as §1

The next assay has as its target TRPM6 (Homo sapiens, UniProt Q9BX84).
From the text: as §1

The next assay concerns the target WNK2 (Homo sapiens, UniProt Q9Y3S1).
From the text: as §1

A further assay deals with ZAP70 (Homo sapiens, UniProt P43403).
From the text: as §1

WNK2, sequence (Q9Y3S1 whole entry): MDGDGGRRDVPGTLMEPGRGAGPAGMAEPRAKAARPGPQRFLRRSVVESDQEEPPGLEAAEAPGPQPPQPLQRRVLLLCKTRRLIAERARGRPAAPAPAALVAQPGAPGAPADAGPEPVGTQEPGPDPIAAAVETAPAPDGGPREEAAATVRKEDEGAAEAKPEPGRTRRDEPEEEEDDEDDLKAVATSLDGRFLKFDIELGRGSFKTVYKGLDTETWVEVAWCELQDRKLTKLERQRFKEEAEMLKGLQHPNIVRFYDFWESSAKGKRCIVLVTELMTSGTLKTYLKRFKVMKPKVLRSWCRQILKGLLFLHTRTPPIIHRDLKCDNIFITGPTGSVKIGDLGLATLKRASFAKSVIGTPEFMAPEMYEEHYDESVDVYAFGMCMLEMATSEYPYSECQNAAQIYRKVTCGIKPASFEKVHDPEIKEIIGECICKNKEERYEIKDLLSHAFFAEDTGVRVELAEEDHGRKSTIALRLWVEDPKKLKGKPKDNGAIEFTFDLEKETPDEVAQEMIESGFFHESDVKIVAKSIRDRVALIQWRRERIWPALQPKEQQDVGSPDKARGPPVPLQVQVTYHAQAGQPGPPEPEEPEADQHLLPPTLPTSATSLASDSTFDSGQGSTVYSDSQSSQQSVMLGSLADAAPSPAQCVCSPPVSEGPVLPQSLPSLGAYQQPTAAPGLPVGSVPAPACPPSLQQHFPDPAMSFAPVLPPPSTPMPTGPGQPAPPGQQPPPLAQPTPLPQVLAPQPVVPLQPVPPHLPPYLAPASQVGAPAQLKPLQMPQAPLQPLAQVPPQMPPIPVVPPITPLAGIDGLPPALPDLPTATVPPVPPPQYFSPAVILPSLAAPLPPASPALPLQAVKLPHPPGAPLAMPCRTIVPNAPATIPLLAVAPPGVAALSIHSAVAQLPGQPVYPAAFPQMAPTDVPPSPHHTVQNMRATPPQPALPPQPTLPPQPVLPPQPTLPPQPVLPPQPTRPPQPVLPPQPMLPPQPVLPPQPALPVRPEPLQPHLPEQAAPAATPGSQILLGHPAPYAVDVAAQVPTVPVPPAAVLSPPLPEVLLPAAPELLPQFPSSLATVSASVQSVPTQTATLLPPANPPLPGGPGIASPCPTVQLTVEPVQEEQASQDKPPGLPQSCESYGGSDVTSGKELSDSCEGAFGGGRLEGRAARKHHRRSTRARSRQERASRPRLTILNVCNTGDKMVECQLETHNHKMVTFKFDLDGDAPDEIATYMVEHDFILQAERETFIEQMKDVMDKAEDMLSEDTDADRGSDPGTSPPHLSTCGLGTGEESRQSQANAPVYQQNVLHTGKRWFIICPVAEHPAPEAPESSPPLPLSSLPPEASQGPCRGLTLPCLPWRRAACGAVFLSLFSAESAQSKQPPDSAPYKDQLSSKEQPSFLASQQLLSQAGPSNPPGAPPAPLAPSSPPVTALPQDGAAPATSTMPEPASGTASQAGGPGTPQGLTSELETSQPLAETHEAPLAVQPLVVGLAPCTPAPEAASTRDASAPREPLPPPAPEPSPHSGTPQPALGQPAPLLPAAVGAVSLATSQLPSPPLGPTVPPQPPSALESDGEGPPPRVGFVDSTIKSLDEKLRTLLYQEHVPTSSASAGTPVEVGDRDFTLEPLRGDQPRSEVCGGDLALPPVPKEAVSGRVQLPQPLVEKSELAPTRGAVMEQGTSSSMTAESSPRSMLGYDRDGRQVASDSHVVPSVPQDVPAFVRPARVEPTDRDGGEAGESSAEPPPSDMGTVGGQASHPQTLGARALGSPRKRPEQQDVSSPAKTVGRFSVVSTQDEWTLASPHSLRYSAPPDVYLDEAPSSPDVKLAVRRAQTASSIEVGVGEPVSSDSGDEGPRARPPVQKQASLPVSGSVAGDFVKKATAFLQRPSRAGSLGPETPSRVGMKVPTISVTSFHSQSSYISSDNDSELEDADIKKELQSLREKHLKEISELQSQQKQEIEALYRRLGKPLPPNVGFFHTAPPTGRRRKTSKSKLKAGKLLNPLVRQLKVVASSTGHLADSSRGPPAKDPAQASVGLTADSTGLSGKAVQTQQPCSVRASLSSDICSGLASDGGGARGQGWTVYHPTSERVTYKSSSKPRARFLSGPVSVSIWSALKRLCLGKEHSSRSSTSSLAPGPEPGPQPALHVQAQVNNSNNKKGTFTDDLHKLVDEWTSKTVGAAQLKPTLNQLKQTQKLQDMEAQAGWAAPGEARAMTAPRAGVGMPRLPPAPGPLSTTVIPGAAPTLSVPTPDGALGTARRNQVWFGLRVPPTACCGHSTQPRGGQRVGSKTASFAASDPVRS
KIT-autoinhibited, sequence (P10721 whole entry): as the sequence (P10721 whole entry L576P) above, with P576L counted along it

Consider `Cn1c(=O)[nH]c2ccc(-c3cccc(C(=O)NC4CCn5ccnc5C4)c3)cc21` (stereo not drawn) [Z36-MP5], for which the remaining binding at 1 µM came out at 89% at AKT2; 56% on AURKA; 84% at AURKB; 55% at CAMK2G; 67% on CDK4-cyclinD1; 54% at CDK4-cyclinD3. The remaining binding at 1 µM at CDK5 was determined as 55%; at DMPK2, 99%; at DRAK2, 79%; on GCN2(Kin.Dom.2,S808G), 94%; at KIT(A829P) it was 78%; on KIT(L576P), 74%. For the same molecule, the remaining binding at 1 µM was 57% on KIT-autoinhibited; 64% at MST1R; 93% on MYLK4; 82% on PCTK1; 71% at PRKCI; 75% on RET(V804L). In addition, the remaining binding at 1 µM at SGK3 was 60%; on TBK1, 98%; at TIE2, 58%; on TRPM6, 90%; at WNK2 it was 63%; at ZAP70 it was 91%.
